Reference: patent US7645903B2, “Use of urea variants as affinity ligands” (GE Healthcare Bio-Sciences AB, priority 2002, dated 2010)

Legend:
human Fab of κ-type = experiment: STD-NMR binding test (saturation transfer difference NMR screening); parameters: key to NMR signal, conc 1 / NMR signal, conc 2 / NMR signal, conc 3 / NMR signal, Conc 1 (directed library) / NMR signal, Conc 2 (directed library): 0 no; 1 weak; 2 strong signal; conditions: for NMR signal, conc 2: 100 nM protein; for NMR signal, conc 2 / NMR signal, conc 1 / NMR signal, conc 3: 0.5 mM ligand; for NMR signal, conc 1: 500 nM protein; for NMR signal, conc 3: 20 nM protein; for NMR signal at the first dilution of antibody concentration: conc 2, 100 nM; for binder designation from NMR screening: from signals at 500, 100 and 20 nM antibody; for NMR signal, Conc 2 (directed library): 100 nM antibody; for NMR signal, Conc 1 (directed library): 500 nM antibody
Procedure: (§1) All NMR experiments were performed at 298 K on a Bruker Avance 500 MHz spectrometer. The 1D saturation transfer difference method (STD-NMR) was used as screening assay (Mayer M. and Meyer B. 1999. Characterisation of Ligand Binding by Saturation Transfer Difference NMR Spectroscopy. Angew. Chem., Int. Ed. 38: 1784-1788). […] The two spectra are recorded in the same experiment in an interleaved fashion. […] It has been shown that the method is capable of detecting ligands with dissociation constants between 10^−3 and 10^−8 M (Mayer M. and Meyer B. 1999. Characterisation of Ligand Binding by Saturation Transfer Difference NMR Spectroscopy. Angew. Chem, Int. Ed. 38: 1784-1788). The strength of the STD-NMR signal depends upon several factors including protein size, offset and duration of the on-resonance irradiation, the dissociation rate constant and the excess of ligand. The STD-NMR method is advantageous in that the detection limits can be tuned for binding by varying the protein concentration while keeping the ligand concentration constant. Under such conditions, at higher protein concentrations the weak to medium binders are detected, whereas at lower protein concentrations only medium binders are detected. For instance, it has been shown before for another enzyme system that both μM and mM binders were detected at a protein concentration of 35 μM whereas only μM binders were detected at protein concentrations of 1 μM and 100 nM (Peng J. W., Lepre C. A., Fejzo J., Abdul-Manan N. and Moore J. M. 2001, Nuclear Magnetic Resonance-Based Approaches for Lead Generation in Drug Discovery, Methods in Enzymology. 338: 202-230). It should be noted that the signal intensity at one specific protein concentration should not be taken as a direct measure of the binding strength. […] On the other hand the signal of the μM binder became even stronger than before (Peng J. W., Lepre C. A., Fejzo J., Abdul-Manan N. and Moore J. M. 2001, Nuclear Magnetic Resonance-Based Approaches for Lead Generation in Drug Discovery, Methods in Enzymology. 338: 202-230).
(§2) Here, three different antibody concentrations were used, namely, 0.5 μM, 100 nM and 20 nM. The antibody used was a human Fab of κ-type. In all cases ligands were tested one-by-one. On-resonance irradiation was set at 0 ppm and off-resonance irradiation was set at 40 ppm. Irradiation time in each scan was 2 s and 16K data points were collected with 1024 scans in total. Compounds for testing were dissolved in DMSOd6 to a concentration of 50 mM and 5 μL of the concentrated ligand solution was added to 495 μL buffer solution. The samples thus consisted of 0.5 mM ligand, 20 mM phosphate buffer, 100 mM NaCl and […] in D2O at pD 7.5, uncorrected reading on pH-meter. Compounds were initially tested for binding with 0.5 μM antibody. Interesting ligands were further tested with protein concentrations of 100 or 20 nM. A one-dimensional ^1H-spectrum was acquired first as reference spectrum and subsequently a saturation transfer difference (STD) spectrum was acquired. Each analysis took 60 minutes on the spectrometer.

[1] = STD-NMR control in the absence of target antibody; parameters: key to NMR signal, ctrl: 0 no; 1 weak; 2 strong signal; conditions: for NMR signal, ctrl: absence of target antibody
Procedure: as §1, §2
These compounds were designated as weak binders. […] Of these, three compounds AB—0000860, AB—0000910 and AB—0001250 showing a clear signal (2 in table 1) were further analysed at a second dilution of antibody concentration (conc 3 in table 1).

Row | SMILES | NMR signal, conc 2 (human Fab of κ-type) | NMR signal, conc 1 (human Fab of κ-type) | NMR signal, ctrl [1] | also measured
1 | c1ccc(-c2nnc3ccccc3n2)cc1 [AB_0000600, 3-phenyl-1,2,4-benzotriazine] | 1 | 1 | 0 | 
2 | OCC(Oc1ccccc1)c1ccccc1 (stereo not drawn) [AB_0000810, 2-phenoxy-2-phenyl-1-ethanol] | 1 | 2 | 0 | 
3 | O=C1CN(c2ccccc2)C(=O)N1c1ccccc1 [AB_0000860, 1,3-diphenylimidazolidine-2,4-dione] | 2 | 2 | 0 | NMR signal, conc 3 (human Fab of κ-type): 1; NMR signal at the first dilution of antibody concentration (human Fab of κ-type): clear signal; binder designation from NMR screening (human Fab of κ-type): strong binders
4 | COc1ccc(CC(C)=O)cc1Br [AB_0000910, 3-bromo-4-methoxyphenylacetone] | 2 | 2 | 0 | NMR signal, conc 3 (human Fab of κ-type): 0; NMR signal at the first dilution of antibody concentration (human Fab of κ-type): clear signal; NMR signal at a second dilution of antibody concentration (human Fab of κ-type; conc 3, 20 nM): did not show any signal
5 | N#CCc1ccc(C(=O)c2ccccc2F)s1 [AB_0001010, 2-[5-(2-fluorobenzoyl)-2-thienyl]acetonitrile] | 2 | 2 | 1 | NMR signal, conc 3 (human Fab of κ-type): 2; binder designation from NMR screening (human Fab of κ-type): false positive; NMR signal in the absence of target antibody ([1]; no antibody): positive NMR signal
6 | CC(C)=CC1=C(O)C(=O)c2ccccc2C1=O [AB_0001040, 2-hydroxy-3-(2-methyl-1-propenyl)-1,4-naphthoquinone] | 1 | 1 | 0 | 
7 | COC(=O)C1OC1c1cc(Cl)ccc1OC (stereo not drawn) [AB_0001240, methyl 3-(5-chloro-2-methoxyphenyl)-2,3-epoxypropionate] | 1 | 1 | 0 | 
8 | CN(C)C(=O)N(C)c1ccc(Cl)c(Cl)c1 [AB_0001250, 1-(3,4-dichlorophenyl)-1,3,3-trimethylurea] | 2 | 2 | 0 | NMR signal, conc 3 (human Fab of κ-type): 1; NMR signal at the first dilution of antibody concentration (human Fab of κ-type): clear signal; binder designation from NMR screening (human Fab of κ-type): strong binders
9 | COC(=O)CCCN(C)C(=O)N(C)c1ccc(Cl)c(Cl)c1 [AB_0001255, 4-[3-(3,4-Dichloro-phenyl)-1,3-dimethyl-ureido]-butyric acid methyl ester] |  |  |  | NMR signal, Conc 2 (directed library) (human Fab of κ-type): 2; NMR signal, Conc 1 (directed library) (human Fab of κ-type): 2; interaction with the antibody in NMR screening of directed library (human Fab of κ-type; two higher antibody concentrations): strongest binding
10 | COC(=O)CCCNC(=O)N(C)c1ccc(Cl)c(Cl)c1 [AB_0001257, 4-[3-(3,4-Dichloro-phenyl)-3-methyl-ureido]-butyric acid methyl ester] |  |  |  | NMR signal, Conc 2 (directed library) (human Fab of κ-type): 0; NMR signal, Conc 1 (directed library) (human Fab of κ-type): 2
11 | COC(=O)CCCN(C)C(=O)N(C)c1ccc(F)c(F)c1 [AB_0001258, 4-[3-(3,4-Difluoro-phenyl)-1,3-dimethyl-ureido]-butyric acid methyl ester] |  |  |  | NMR signal, Conc 2 (directed library) (human Fab of κ-type): 1; NMR signal, Conc 1 (directed library) (human Fab of κ-type): 1
12 | S=C(Oc1ccccn1)c1csc(C2COc3ccccc3O2)n1 (stereo not drawn) [AB_0001260, 2-pyridyl 2-(2,3-dihydro-1,4-benzodioxin-2-yl)-1,3-thiazole-4-carbothioate] |  | 0 |  | 
13 | OC(CNCc1ccc(Cl)cc1)CSc1ccccc1 (stereo not drawn) [AB_0001270, 1-[(4-chlorobenzyl)amino]-3-(phenylthio)propan-2-ol] | 0 | 1 |  | 
14 | Clc1ccc(OCc2noc(CSc3ccccn3)n2)cc1 [AB_0001290, 3-[(4-chlorophenoxy)methyl]-5-[(2-pyridylthio)methyl]-1,2,4-oxadiazole] | 1 | 2 | 0 | 
15 | O=C(c1cccs1)c1cnc2ccccn2c1=O [AB_0001300, 3-(2-thienylcarbonyl)-4h-pyrido[1,2-a]pyrimidin-4-one] | 0 | 1 |  | 
